Columns and labels:
[1] = test system: Id-1 promoter; experiment: Id-1 promoter luciferase reporter assay in MDA-MB231 cells; assay type: cell-based, human; conditions: 1.5 μM, 2 or 3 days
Protocol: Id-1 promoter reporter assays: A SacI-BspHI fragment of 2.2 kb corresponding to the 5′ upstream region of human Id-1 gene and driving a luciferase gene in a PGL-3 vector (Promega) was used (Id-1-sbsluc). Cells were plated in six well dishes in medium supplemented with 10% FBS and 5 μg/ml insulin. After 24 hours, cells were cotransfected with 6 μg of luciferase reporter plasmids and 2 μg of pCMVβ (Clontech) using Superfect reagent (Qiagen). pCMVβ contained bacterial β-galactosidase and served to control for variation in transfection efficiency. 3 hours after transfection, the cells were rinsed twice with PBS and were cultured in the absence or presence of CBD for 48-72 h. Cell pellets were lysed in 80 μl of reporter lysis buffer (Promega) for 10 min at room temperature. Lysed cells were centrifuged and supernatants harvested. Luciferase and β-gal assays were performed using Luciferase Assay System (Promega), β-Gal Assay Kit (Clontech) and a 2010 luminometer (Pharmingen).
Gene Expression Assays looking at Id-1 gene epression with CBD in MDA-MB231 cells. […] Twenty-four hours after transfection, MDA-MB231-Id-1-luc cells were treated with CBD for 2 or 3 days and luciferase activity was measured (FIG. 3, panel B and panel C). […] These findings correlated to the data obtained when the expression of the Id-1 protein was assessed by Western analysis.

[2] = test system: U251 cells; experiment: Boyden chamber invasion assay; assay type: cell-based, human
Text: Boyden chamber U251 cell invasion studies with CBD and/or Δ^9-THC. In addition to uncontrolled cell growth, a hallmark phenotype of aggressive GBM tumor cells is their ability to migrate away for the primary tumor of origin and invade into neighboring CNS tissue.

[3] = test system: 4T1 cells; experiment: In-vivo primary tumor proliferation (4T1 mammary fat pad, flank of Nude mice); set-up: species or system mouse; conditions: daily treatment from one week post injection
Protocol: In-vivo studies of breast and brain tumor formation with CBD. The compounds of the disclosure were effective in inhibiting tumor formation in an in-vivo model. Breast cancer 4T1 cells were subcutaneously injected into the mammary fat pad of BALBc mice (FIG. 8, Panel A), or into the flank of Nude mice (FIG. 8, Panel B). After one week post injection, the mice were treated daily (systemic in A, and peritumoral in B) with CBD […]. Primary tumor volume was then calculated by measuring the perpendicular largest diameters of the tumor with a caliper and using the formula (L×W^2/2).

[4] = test system: ACCM cells; experiment: Lung metastasis after injection of ACCM cells; assay type: in vivo, mouse; conditions: daily treatment
Protocol: Measuring the effect of CBD on the aggressiveness of head and neck as well as salivary gland cancer cells. Head and neck cancer cell lines (SAS and HSC-2 in the upper panels) and salivary gland cancer cell lines (ACCM and ACC2 in the lower panels) were treated with CBD.

[5] = test system: 4T1 breast cancer cells; experiment: Viability assay, combination with Paclitaxel; assay type: cell-based, mouse
Protocol: (§1) Viability Assays using drug combinations and statistical analysis: Multiple viability assays in a 96 well format were run for each compound and the average percent inhibition of cell viability was calculated and transformed to fraction affected (Fa) i.e., percent inhibitory effect. Additional CI values and a dose reduction index (DRI) were also calculated using Compusyn software. After determining the (IC50/Fa0.5) values of the drugs individually, components were then combined at the following concentration ranges: controls, 0.125×IC50, 0.25×IC50, 0.5×IC50 and a combination index was calculated where CI<1, =1, and >1 indicate synergism, additive effect, and antagonism, respectively.
(§2) Cell viability studies with 4T1 breast cancer cells using CBD in combination with Paclitaxel. […] The concentration response curves were first generated for Paclitaxel (PAC), CBD alone, and a combination of CBD and Paclitaxel (FIG. 11, panel A). The inhibitory values from the concentration response curves were then used to calculate combination index (CI) values at multiple combination ratios (FIG. 11, panel B). From which, the data was also used to calculate i) IC50 values, the slope of the curve (m) and a goodness of fit value (r).

[6] = test system: U251 GBM cells; experiment: Viability assay, combination with Temozolomide; assay type: cell-based, human
Protocol: as §1
as §2, with “U251 GBM” for “4T1 breast cancer”, “Temozolomide.” for “Paclitaxel.”, “temozolomide,” for “Paclitaxel (PAC),”, “temozolomide” for “Paclitaxel”, “16,” for “11,”, “(i)” for “i)”

[7] = test system: U251 cells; experiment: Cell cycle analysis (PI staining, FACS); assay type: cell-based, human; conditions: THC 1.7 μM, CBD 0.4 μM
Protocol: Cell cycle analysis: U251 cells were grown in Petri dishes (100 mm×15 mm) and received drug treatments for 2 days. On the third day, the cells were harvested and centrifuged at 1200 rpm for 5 minutes. The pellet was washed 1× with PBS+1% BSA, and centrifuged again. The pellet was re-suspended in 0.5 ml of 2% paraformaldehyde (diluted with PBS) and left to fix overnight at room temperature. The next day the cells were pelleted and re-suspended in 0.5 ml 0.3% Triton in PBS and incubated for 5 minutes at room temperature. The cells were then washed 2 times with PBS+1% BSA. The cells were finally suspended in PBS (0.1% BSA) with 10 ug/ml Propidium Iodide and 100 μg/ml RNAse. The cells were incubated for 30 minutes at room temperature before being stored at 4° C. Cell cycle was measured using a FACS Calibur using Cell Quest Pro and Modfit software.
Apoptosis Studies using U251 cells with Δ^9-THC and/or CBD. […] Therefore, U251 cells were treated with THC and CBD alone or with the combination of the two, and cell cycle was analyzed using cell flow cytometery (FIG. 20). […] Additionally, there was an increase in the population of cells in the G2/M phase. These changes in G1, S and G2/M phase are hallmarks of cell cycle arrest.
Albeit, the magnitude of these effects was reduced compared to those observed with the combination treatment.

[8] = test system: pERK, JNK, p38 MAPK; experiment: Western analysis of MAPK activity in U251 cells
[9] = test system: Id-2; experiment: Western analysis of Id-2 expression in breast cancer cells; assay type: cell-based, human; conditions: 1.0 μM, three days
[10] = test system: Id-1; experiment: Quantitative Western analysis of Id-1 expression in 4T1 cells; assay type: cell-based, mouse; conditions: 1.0 μM, two days
Protocol: To examine whether CBD or O-1663 CBD analog would inhibit Id-1 protein expression in cells proposed for the in-vivo metastic cancer model, quantitative Western analysis was performed with 4T1 cells. 4T1 cells were treated with 1.0 μM of cannabinoid for two days and then analyzed for Id-1 protein expression.

Compound	luciferase activity (Id-1 promoter) [1]	invasiveness of U251 cells [2]	tumor proliferation in-vivo (primary tumor volume) [3]	number of lung metastatic foci [4]	interaction with Paclitaxel (combination index) [5]	interaction with Temozolomide (combination index) [6]	cell cycle phases [7]	p-ERK, higher concentrations alone ([8]; 2.5 μM Δ^9-THC, 2.0 μM CBD, three days)	pERK ([8]; THC 1.7 μM, CBD 0.4 μM, two days)	up-regulation of Id-2 expression [9]	Id-1 protein expression compared with CBD [10]
C=C(C)[C@@H]1CCC(C)=C[C@H]1c1c(O)cc(CCCCC)cc1O [CBD, cannabidiol]	significant inhibition of luciferase activity	significantly reduce the invasiveness of U251 cells	potent inhibitor of tumor proliferation	significantly reduced upon CBD treatment	acts synergistically with Paclitaxel	acts synergistically with Temozolomide	increases in the population of cells in G1 and G2/M phase and decreases in cells in S phase	small inhibition of p-ERK	no changes in pERK were observed	–	–
CCCCC(C)(C)c1cc(O)c(C2CCC(C3CCCCC3)CC2)c(O)c1 (centres unmarked) [Compound O-1663]	–	–	–	–	–	–	–	–	–	more potent than CBD at up-regulating Id-2 expression	downregulated Id-1 protein expression to a far greater extent than CBD
